Test results published in US6369032B1, “Method for treating allergies” (Ortho-McNeil Pharmaceutical, Inc., priority 2000, dated 2002).

What was measured:
[1] = tested on: ragweed allergen-specific CD4 T cells; experiment: Ex vivo human T cell proliferation assay, PBMC of allergic donors cultured with ragweed extracts (3H-thymidine incorporation); type: cell-based; conditions: PBMC from ragweed-allergic donors, 7 days culture, titrated doses of LHVS; two donors tested
Description: (§1) Reagents. Glycerinated crude allergen extracts of house dust mites (Dermataphagoides pteronyssinus, Dermataphagoides farinae) and ragweed [Ambrosia trifida (giant), Ambrosia artemisiifolia (short)] were purchased from Hollister-Stier Laboratories (Minneapolis, Minn.). Concanavalin A (ConA) was purchased from Calbiochem (La Jolla, Calif.).
(§2) Donors. All allergic donors were prescreened for their specific allergies using RAST tests. The HLA class II haplotypes of these donors were determined using PCR.
(§3) Cell culture. Human peripheral blood mononuclear cells (PBMC) were purified from blood of allergic donors using Ficoll-Hypaque gradient followed by washes with phosphate buffered saline (PBS). PBMC were cultured in triplicate or duplicate at 0.5-1.0×10^6 cells/well with titrated doses of allergen extracts, in the presence or absence of a known cathepsin S inhibitor, LHVS (morpholinurea-leucine-homo-phenylalanine-vinylsulfonephenyl) (Palmer et al. (1995), J. Med. Chem. 38:3193 and Riese et al. (1996), Immunity 4:357). Serial diluted stock solutions of LHVS were first made in 100% DMSO and then diluted 1:15 in 40% Hydroxypropynyl cyclodextrin (HPCD). Three microliters of LHVS in HPCD was added into PBMC cultures (200 μL/well). […] Eighteen hours later, cells were harvested using a Filtermate Harvester (Packard) and counted for ^3H-TdR incorporation on Topcount (Packard). […]

[2] = tested on: cathepsin S (degradation of invariant chain Ii); experiment: Monitoring cathepsin S inhibition in human blood: p10Ii fragment of invariant chain in PBMC by Western blot; type: cell-based; conditions: PBMC from human blood, incubation for 24 h, SDS-PAGE / Western blot
Description: The effect of in vivo administration of cathepsin S inhibitors, in a clinical trial setting, can be monitored by measuring accumulation of an intermediate degradation product of invariant chain (Ii), i.e. the p10Ii fragment, in blood of dosed subjects. After administration of a cathepsin inhibitor for a certain period of time, for example, 0.01 to 50 mg/kg/day to result in a blood concentration of preferably 1 nM-10 μM for 16-30 h, blood is drawn and white blood cells are purified, e.g. either by lysis of red blood cells or by a Ficoll-Hypaque gradient centrifugation. Whole cell lysates of WBC are then made and analyzed by either a Western blot assay or an ELISA assay. For the Western blot assay, cell lysates are first resolved on SDS-PAGE gels. After transferring to nitrocellulose membranes, Ii and its intermediate degradation products, including the p10Ii, can be detected using a mouse mAb against Ii, e.g. Pin1.1, or rabbit polyclonal antibodies or a mouse monoclonal antibody specific for the p10Ii fragment or against the entire p10Ii fragment. For ELISA assay, a pair of antibodies against Ii, including Pin1.1, and a rabbit polyclonal antibody against C-terminal of p10Ii, can be used. The same assay can also be applied to monitor the effect of cathepsin S inhibitors in vivo in animal studies, for example in monkeys, dogs, pigs, rabbits, guinea pigs, and rodents. […]

[3] = tested on: HDM allergen-specific CD4 T cells; experiment: Ex vivo human T cell proliferation assay, PBMC of allergic donors cultured with house dust mite extracts (3H-thymidine incorporation); type: cell-based; conditions: PBMC from HDM-allergic donors, 7 days culture, titrated doses of LHVS; all four donors tested
Description: as §1, §2, §3

[4] = tested on: T cells stimulated with ConA, a pan-T cell mitogen; experiment: T cell proliferative responses induced by ConA (specificity control); type: cell-based, human; conditions: PBMC from allergic donors
Description: as §1
Cell culture. Human peripheral blood mononuclear cells (PBMC) were purified from blood of allergic donors using Ficoll-Hypaque gradient followed by washes with phosphate buffered saline (PBS). PBMC were cultured in triplicate or duplicate at 0.5-1.0×10^6 cells/well with titrated doses of allergen extracts, in the presence or absence of a known cathepsin S inhibitor, LHVS (morpholinurea-leucine-homo-phenylalanine-vinylsulfonephenyl) (Palmer et al. (1995), J. Med. Chem. 38:3193 and Riese et al. (1996), Immunity 4:357). Serial diluted stock solutions of LHVS were first made in 100% DMSO and then diluted 1:15 in 40% Hydroxypropynyl cyclodextrin (HPCD). Three microliters of LHVS in HPCD was added into PBMC cultures (200 μL/well). After 6 days of culture, 1 μCi/well of ^3H-thymidine (TdR) was added. Eighteen hours later, cells were harvested using a Filtermate Harvester (Packard) and counted for ^3H-TdR incorporation on Topcount (Packard). […]

With `CC(C)C[C@H](NC(=O)N1CCOCC1)C(=O)N[C@H](/C=C/S(=O)(=O)c1ccccc1)CCc1ccccc1` [LHVS, 4-morpholinecarboxamide, N-[(1S)-3-methyl-1-[[[(1S,2E)-1-(2-phenylethyl)-3-(phenylsulfonyl)-2-propenyl]amino]carbonyl]butyl]-] the “T cell proliferation induced by ragweed extracts (short and giant)” value [1] was “strongly inhibited”, the “p10Ii fragment (block in the degradation of Ii)” value [2] was “the p10Ii fragment was seen” and the “T cell proliferation induced by house dust mite extracts (Der p, Der f)” value [3] was “strongly inhibited”. For the same compound, the “T cell proliferative responses induced by ConA” value [4] was “not affected”.
